Measured values as given in US8158636B2, “Compounds and methods for kinase modulation, and indications therefor” (Plexxikon Inc., priority 2008, dated 2012).

Tests used:
Type in all cases: biochemical
[1] = biological target: Fms (Homo sapiens, UniProt P07333); assay: Kinase activity assay, Fms; conditions: Table 1h; read-out: activity toward kinase Fms, IC50
Text: (§1) Assays for the activity of kinases, including, but not limited to, Fms, Kit, B-Raf, B-Raf V600E, c-Raf-1, and TrkA are known in the art, for example as described in US Patent Publication Number US20070032519 and U.S. patent application Ser. No. 11/473,347 (see also, PCT publication WO2007002433), the disclosures of which are hereby incorporated by reference with respect to such assays.

[2] = biological target: Kdr (Homo sapiens, UniProt P35968); assay: Kinase activity assay, Kdr; conditions: Table 1i; read-out: activity toward kinase Kdr, IC50
Sequence of Kdr (P35968 20-1356): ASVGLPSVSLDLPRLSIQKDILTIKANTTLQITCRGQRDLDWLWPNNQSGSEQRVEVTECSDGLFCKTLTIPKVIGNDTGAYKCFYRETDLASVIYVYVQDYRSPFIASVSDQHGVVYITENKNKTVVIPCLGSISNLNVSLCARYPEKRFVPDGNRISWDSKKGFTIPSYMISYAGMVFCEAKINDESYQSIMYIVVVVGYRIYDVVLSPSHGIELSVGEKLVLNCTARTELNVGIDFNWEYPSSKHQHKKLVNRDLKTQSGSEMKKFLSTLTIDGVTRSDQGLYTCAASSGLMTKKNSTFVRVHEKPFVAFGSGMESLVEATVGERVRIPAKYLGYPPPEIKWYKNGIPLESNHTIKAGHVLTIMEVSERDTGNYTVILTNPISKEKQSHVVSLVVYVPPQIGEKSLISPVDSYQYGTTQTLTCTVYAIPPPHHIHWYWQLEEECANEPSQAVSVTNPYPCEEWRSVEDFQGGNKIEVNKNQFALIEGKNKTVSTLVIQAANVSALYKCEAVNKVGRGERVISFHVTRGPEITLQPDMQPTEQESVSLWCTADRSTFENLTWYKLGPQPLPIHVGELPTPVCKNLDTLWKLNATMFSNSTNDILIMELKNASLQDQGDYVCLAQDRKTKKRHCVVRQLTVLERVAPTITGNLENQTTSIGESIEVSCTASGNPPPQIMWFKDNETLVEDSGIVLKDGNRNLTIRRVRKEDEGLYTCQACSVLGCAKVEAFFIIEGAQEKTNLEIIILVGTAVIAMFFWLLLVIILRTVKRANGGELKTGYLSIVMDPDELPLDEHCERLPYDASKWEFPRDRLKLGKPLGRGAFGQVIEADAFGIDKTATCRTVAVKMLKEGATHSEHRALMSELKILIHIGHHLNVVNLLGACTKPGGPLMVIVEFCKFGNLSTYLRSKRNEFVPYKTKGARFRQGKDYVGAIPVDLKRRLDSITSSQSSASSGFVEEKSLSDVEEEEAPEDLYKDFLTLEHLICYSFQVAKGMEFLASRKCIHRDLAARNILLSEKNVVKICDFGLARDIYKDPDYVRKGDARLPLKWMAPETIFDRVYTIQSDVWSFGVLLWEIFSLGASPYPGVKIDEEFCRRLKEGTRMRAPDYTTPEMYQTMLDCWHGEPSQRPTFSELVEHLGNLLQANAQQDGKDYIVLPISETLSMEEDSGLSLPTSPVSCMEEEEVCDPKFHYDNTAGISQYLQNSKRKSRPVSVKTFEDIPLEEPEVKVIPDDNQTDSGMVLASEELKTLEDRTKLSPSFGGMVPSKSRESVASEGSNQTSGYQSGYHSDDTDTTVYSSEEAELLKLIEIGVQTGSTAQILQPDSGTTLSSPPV
Text: as §1

[3] = biological target: Kit (Homo sapiens, UniProt P10721); assay: Kinase activity assay, Kit; conditions: Table 1j; read-out: activity toward kinase Kit, IC50
Sequence of Kit (P10721 26-976): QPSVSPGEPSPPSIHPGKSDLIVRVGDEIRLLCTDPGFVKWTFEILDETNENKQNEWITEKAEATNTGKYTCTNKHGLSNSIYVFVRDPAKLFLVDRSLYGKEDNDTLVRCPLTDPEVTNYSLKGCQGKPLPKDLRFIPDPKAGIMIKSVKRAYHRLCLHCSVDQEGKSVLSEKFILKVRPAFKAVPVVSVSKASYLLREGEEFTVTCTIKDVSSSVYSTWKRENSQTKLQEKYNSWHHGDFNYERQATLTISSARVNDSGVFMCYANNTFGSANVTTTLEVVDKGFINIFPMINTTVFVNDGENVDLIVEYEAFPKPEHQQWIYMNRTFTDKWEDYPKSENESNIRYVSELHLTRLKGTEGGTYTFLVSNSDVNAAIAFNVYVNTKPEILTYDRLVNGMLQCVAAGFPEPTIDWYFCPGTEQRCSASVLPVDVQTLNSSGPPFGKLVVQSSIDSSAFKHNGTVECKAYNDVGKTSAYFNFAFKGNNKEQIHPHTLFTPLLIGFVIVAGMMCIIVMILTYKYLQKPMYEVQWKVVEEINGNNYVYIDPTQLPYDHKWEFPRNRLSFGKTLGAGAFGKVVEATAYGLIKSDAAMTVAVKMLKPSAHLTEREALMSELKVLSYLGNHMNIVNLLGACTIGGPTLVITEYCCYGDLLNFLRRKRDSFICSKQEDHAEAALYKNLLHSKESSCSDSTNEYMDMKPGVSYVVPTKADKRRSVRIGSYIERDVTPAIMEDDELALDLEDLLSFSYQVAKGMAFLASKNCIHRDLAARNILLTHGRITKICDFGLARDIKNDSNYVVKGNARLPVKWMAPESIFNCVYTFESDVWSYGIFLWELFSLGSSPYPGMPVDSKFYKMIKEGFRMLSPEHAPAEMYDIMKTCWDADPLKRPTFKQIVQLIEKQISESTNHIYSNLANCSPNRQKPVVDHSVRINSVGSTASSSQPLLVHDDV
Text: as §1

Sequence of Fms (P07333 20-972): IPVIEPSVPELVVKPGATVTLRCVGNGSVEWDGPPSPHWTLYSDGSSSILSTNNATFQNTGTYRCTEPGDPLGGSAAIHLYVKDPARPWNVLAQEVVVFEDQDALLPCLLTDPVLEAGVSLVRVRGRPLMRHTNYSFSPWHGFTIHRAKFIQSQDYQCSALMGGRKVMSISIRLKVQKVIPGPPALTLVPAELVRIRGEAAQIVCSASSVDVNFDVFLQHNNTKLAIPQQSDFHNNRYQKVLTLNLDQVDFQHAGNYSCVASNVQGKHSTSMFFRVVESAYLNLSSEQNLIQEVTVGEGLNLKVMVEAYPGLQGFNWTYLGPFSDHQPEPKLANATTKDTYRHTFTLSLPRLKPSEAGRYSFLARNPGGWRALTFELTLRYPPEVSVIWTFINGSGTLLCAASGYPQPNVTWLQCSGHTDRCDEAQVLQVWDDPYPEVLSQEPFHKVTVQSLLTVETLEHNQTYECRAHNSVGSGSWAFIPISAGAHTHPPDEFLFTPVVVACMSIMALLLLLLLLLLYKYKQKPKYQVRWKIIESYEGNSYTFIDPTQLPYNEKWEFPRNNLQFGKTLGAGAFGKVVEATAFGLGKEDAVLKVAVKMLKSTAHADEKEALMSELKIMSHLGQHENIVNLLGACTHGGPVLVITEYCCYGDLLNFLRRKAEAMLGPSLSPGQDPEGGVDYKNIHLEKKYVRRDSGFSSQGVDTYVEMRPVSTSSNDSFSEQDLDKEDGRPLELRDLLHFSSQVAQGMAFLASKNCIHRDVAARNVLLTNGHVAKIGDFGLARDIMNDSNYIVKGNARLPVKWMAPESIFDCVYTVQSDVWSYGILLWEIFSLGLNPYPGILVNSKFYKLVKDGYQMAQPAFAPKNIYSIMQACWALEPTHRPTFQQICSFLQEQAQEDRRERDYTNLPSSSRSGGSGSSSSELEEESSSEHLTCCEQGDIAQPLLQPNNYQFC

Compound | IC50 [1] [µM] | IC50 [2] [µM] | IC50 [3] [µM]
COc1ccc(CNc2ncc(Cc3c[nH]c4ncncc34)cc2C)cn1 [P-0012, (6-Methoxy-pyridin-3-ylmethyl)-[3-methyl-5-(7H-pyrrolo[2,3-d]pyrimidin-5-ylmethyl)-pyridin-2-yl]-amine] | ≤ 10 | ≤ 10 | ≤ 10
COc1ccc(CNc2ncc(Cc3c[nH]c4ncncc34)cn2)cn1 [P-0015, (6-Methoxy-pyridin-3-ylmethyl)-[5-(7H-pyrrolo[2,3-d]pyrimidin-5-ylmethyl)-pyrimidin-2-yl]-amine] | ≤ 10 | ≤ 10 | ≤ 10
Fc1nc(NCc2cnccc2C(F)(F)F)ccc1Cc1c[nH]c2ncncc12 [P-0018, [6-Fluoro-5-(7H-pyrrolo[2,3-d]pyrimidin-5-ylmethyl)-pyridin-2-yl]-(4-trifluoromethyl-pyridin-3-ylmethyl)-amine] | ≤ 10 | ≤ 10 | ≤ 10
COc1ccc(CNc2ccc(C(=O)c3c[nH]c4ncncc34)c(C)n2)cn1 [P-0019, {6-[(6-Methoxy-pyridin-3-ylmethyl)-amino]-2-methyl-pyridin-3-yl}-(7H-pyrrolo[2,3-d]pyrimidin-5-yl)-methanone] | ≤ 10 | – | –
COc1ncccc1CNc1ccc(Cc2c[nH]c3ncncc23)c(F)n1 [P-0026, [6-Fluoro-5-(7H-pyrrolo[2,3-d]pyrimidin-5-ylmethyl)-pyridin-2-yl]-(2-methoxy-pyridin-3-ylmethyl)-amine] | ≤ 10 | ≤ 10 | ≤ 10
Cc1cnccc1CNc1ncc(Cc2c[nH]c3ncncc23)cn1 [P-0034, (3-Methyl-pyridin-4-ylmethyl)-[5-(7H-pyrrolo[2,3-d]pyrimidin-5-ylmethyl)-pyrimidin-2-yl]-amine] | ≤ 10 | – | –
Cc1cc(CNc2ncc(Cc3c[nH]c4ncncc34)cn2)ccn1 [P-0035, (2-Methyl-pyridin-4-ylmethyl)-[5-(7H-pyrrolo[2,3-d]pyrimidin-5-ylmethyl)-pyrimidin-2-yl]-amine] | ≤ 10 | – | –
Fc1nc(NCc2ccncc2Br)ccc1Cc1c[nH]c2ncncc12 [P-0046, (3-Bromo-pyridin-4-ylmethyl)-[6-fluoro-5-(7H-pyrrolo[2,3-d]pyrimidin-5-ylmethyl)-pyridin-2-yl]-amine] | ≤ 10 | ≤ 10 | –
Cc1ncc(CNc2ccc(Cc3c[nH]c4ncncc34)c(F)n2)cn1 [P-0048, [6-Fluoro-5-(7H-pyrrolo[2,3-d]pyrimidin-5-ylmethyl)-pyridin-2-yl]-(2-methyl-pyrimidin-5-ylmethyl)-amine] | ≤ 10 | – | –
Fc1cnccc1CNc1ccc(Cc2c[nH]c3ncncc23)c(F)n1 [P-0049, (3-Fluoro-pyridin-4-ylmethyl)-[6-fluoro-5-(7H-pyrrolo[2,3-d]pyrimidin-5-ylmethyl)-pyridin-2-yl]-amine] | ≤ 10 | – | –
COc1ccncc1CNc1ccc(Cc2c[nH]c3ncncc23)c(F)n1 [P-0056, [6-Fluoro-5-(7H-pyrrolo[2,3-d]pyrimidin-5-ylmethyl)-pyridin-2-yl]-(4-methoxy-pyridin-3-ylmethyl)-amine] | ≤ 10 | – | –
CNc1ncccc1CNc1ccc(Cc2c[nH]c3ncncc23)c(F)n1 [P-0066, [6-Fluoro-5-(7H-pyrrolo[2,3-d]pyrimidin-5-ylmethyl)-pyridin-2-yl]-(2-methylamino-pyridin-3-ylmethyl)-amine] | ≤ 10 | ≤ 10 | –
Fc1ncccc1CNc1ccc(Cc2c[nH]c3ncncc23)c(F)n1 [P-0068, (2-Fluoro-pyridin-3-ylmethyl)-[6-fluoro-5-(7H-pyrrolo[2,3-d]pyrimidin-5-ylmethyl)-pyridin-2-yl]-amine] | ≤ 10 | ≤ 10 | –

Results, then the molecule that gave them:

IC50 [1] [µM] | IC50 [2] [µM] | IC50 [3] [µM] | Compound
≤ 10 | ≤ 10 | ≤ 10 | COc1ccc(CNc2ncc(Cc3c[nH]c4ncncc34)cc2F)cn1 [P-0017, [3-Fluoro-5-(7H-pyrrolo[2,3-d]pyrimidin-5-ylmethyl)-pyridin-2-yl]-(6-methoxy-pyridin-3-ylmethyl)-amine]
≤ 10 | ≤ 10 | – | Cc1cc(CNc2ccc(Cc3c[nH]c4ncncc34)c(F)n2)ccn1 [P-0020, [6-Fluoro-5-(7H-pyrrolo[2,3-d]pyrimidin-5-ylmethyl)-pyridin-2-yl]-(2-methyl-pyridin-4-ylmethyl)-amine]
≤ 10 | ≤ 10 | ≤ 10 | COc1cc(CNc2ccc(Cc3c[nH]c4ncncc34)c(F)n2)ccn1 [P-0023, [6-Fluoro-5-(7H-pyrrolo[2,3-d]pyrimidin-5-ylmethyl)-pyridin-2-yl]-(2-methoxy-pyridin-4-ylmethyl)-amine]
≤ 10 | ≤ 10 | – | COc1cc(CNc2ncc(Cc3c[nH]c4ncncc34)cn2)c(F)cn1 [P-0025, (5-Fluoro-2-methoxy-pyridin-4-ylmethyl)-[5-(7H-pyrrolo[2,3-d]pyrimidin-5-ylmethyl)-pyrimidin-2-yl]-amine]
≤ 10 | – | – | c1ccc(CNc2ncc(Cc3c[nH]c4ncncc34)cn2)nc1 [P-0028, Pyridin-2-ylmethyl-[5-(7H-pyrrolo[2,3-d]pyrimidin-5-ylmethyl)-pyrimidin-2-yl]-amine]
≤ 10 | – | – | CNc1ncc(CNc2ccc(Cc3c[nH]c4ncncc34)c(F)n2)cn1 [P-0042, (5-{[6-Fluoro-5-(7H-pyrrolo[2,3-d]pyrimidin-5-ylmethyl)-pyridin-2-ylamino]-methyl}-pyrimidin-2-yl)-methyl-amine]
≤ 10 | ≤ 10 | – | Fc1nc(NCc2ccncc2Cl)ccc1Cc1c[nH]c2ncncc12 [P-0047, (3-Chloro-pyridin-4-ylmethyl)-[6-fluoro-5-(7H-pyrrolo[2,3-d]pyrimidin-5-ylmethyl)-pyridin-2-yl]-amine]
≤ 10 | – | – | Cc1cnccc1CNc1ccc(Cc2c[nH]c3ncncc23)c(F)n1 [P-0055, [6-Fluoro-5-(7H-pyrrolo[2,3-d]pyrimidin-5-ylmethyl)-pyridin-2-yl]-(3-methyl-pyridin-4-ylmethyl)-amine]
≤ 10 | ≤ 10 | – | Cc1ccnc(CNc2ccc(Cc3c[nH]c4ncncc34)c(F)n2)c1 [P-0058, [6-Fluoro-5-(7H-pyrrolo[2,3-d]pyrimidin-5-ylmethyl)-pyridin-2-yl]-(4-methyl-pyridin-2-ylmethyl)-amine]
≤ 10 | ≤ 10 | – | Fc1nc(NCc2ccnc(N3CCCC3)c2)ccc1Cc1c[nH]c2ncncc12 [P-0059, [6-Fluoro-5-(7H-pyrrolo[2,3-d]pyrimidin-5-ylmethyl)-pyridin-2-yl]-(2-pyrrolidin-1-yl-pyridin-4-ylmethyl)-amine]
≤ 10 | ≤ 10 | – | Fc1cc(CNc2ccc(Cc3c[nH]c4ncncc34)c(F)n2)ccn1 [P-0074, (2-Fluoro-pyridin-4-ylmethyl)-[6-fluoro-5-(7H-pyrrolo[2,3-d]pyrimidin-5-ylmethyl)-pyridin-2-yl]-amine]
≤ 10 | – | – | COCCc1ncc(CNc2ccc(Cc3c[nH]c4ncncc34)c(F)n2)cn1 [P-0080, [6-Fluoro-5-(7H-pyrrolo[2,3-d]pyrimidin-5-ylmethyl)-pyridin-2-yl]-[2-(2-methoxy-ethyl)-pyrimidin-5-ylmethyl]-amine]
≤ 10 | – | ≤ 10 | COc1ncccc1CNc1ncc(Cc2c[nH]c3ncncc23)cn1 [P-0084, (2-Methoxy-pyridin-3-ylmethyl)-[5-(7H-pyrrolo[2,3-d]pyrimidin-5-ylmethyl)-pyrimidin-2-yl]-amine]
